Experiments:
Assay in all cases: radiometric filter-binding kinase assay, Kinase HotSpot
Conditions in all cases: compound 0.5 µM; ATP 10 µM
AURKA (human) = AURKA (human) (UniProt O14965)
BMX (human) = BMX (human) (UniProt P51813)
BRSK2 (human) = BRSK2 (human) (UniProt Q8IWQ3)
CDK6 CCND3 (human) = CDK6 CCND3 (human) (UniProt P30281+Q00534)
CHEK2 (human) = CHEK2 (human) (UniProt O96017)
CLK2 (human) = CLK2 (human) (UniProt P49760)
CSK (human) = CSK (human) (UniProt P41240)
CSNK1D (human) = CSNK1D (human) (UniProt P48730)
CSNK2A2 (human) = CSNK2A2 (human) (UniProt P19784)
DAPK3 (human) = DAPK3 (human) (UniProt O43293)
DMPK (human) = DMPK (human) (UniProt Q09013)
DYRK1B (human) = DYRK1B (human) (UniProt Q9Y463)
EPHA5 (human) = EPHA5 (human) (UniProt P54756)
ERBB2 (human) = ERBB2 (human) (UniProt P04626)
FES (human) = FES (human) (UniProt P07332)
FGFR3 (human) = FGFR3 (human) (UniProt P22607)
FGR (human) = FGR (human) (UniProt P09769)
FRK (human) = FRK (human) (UniProt P42685)
GRK6 (human) = GRK6 (human) (UniProt P43250)
GSK3B (human) = GSK3B (human) (UniProt P49841)
HIPK2 (human) = HIPK2 (human) (UniProt Q9H2X6)
HIPK4 (human) = HIPK4 (human) (UniProt Q8NE63)
JAK2 JH1 JH2 (human) = JAK2 JH1 JH2 (human) (UniProt O60674)
MAP3K10 (human) = MAP3K10 (human) (UniProt Q02779)
Sequence of MAP3K10 (human) (Q02779 whole entry, looked up): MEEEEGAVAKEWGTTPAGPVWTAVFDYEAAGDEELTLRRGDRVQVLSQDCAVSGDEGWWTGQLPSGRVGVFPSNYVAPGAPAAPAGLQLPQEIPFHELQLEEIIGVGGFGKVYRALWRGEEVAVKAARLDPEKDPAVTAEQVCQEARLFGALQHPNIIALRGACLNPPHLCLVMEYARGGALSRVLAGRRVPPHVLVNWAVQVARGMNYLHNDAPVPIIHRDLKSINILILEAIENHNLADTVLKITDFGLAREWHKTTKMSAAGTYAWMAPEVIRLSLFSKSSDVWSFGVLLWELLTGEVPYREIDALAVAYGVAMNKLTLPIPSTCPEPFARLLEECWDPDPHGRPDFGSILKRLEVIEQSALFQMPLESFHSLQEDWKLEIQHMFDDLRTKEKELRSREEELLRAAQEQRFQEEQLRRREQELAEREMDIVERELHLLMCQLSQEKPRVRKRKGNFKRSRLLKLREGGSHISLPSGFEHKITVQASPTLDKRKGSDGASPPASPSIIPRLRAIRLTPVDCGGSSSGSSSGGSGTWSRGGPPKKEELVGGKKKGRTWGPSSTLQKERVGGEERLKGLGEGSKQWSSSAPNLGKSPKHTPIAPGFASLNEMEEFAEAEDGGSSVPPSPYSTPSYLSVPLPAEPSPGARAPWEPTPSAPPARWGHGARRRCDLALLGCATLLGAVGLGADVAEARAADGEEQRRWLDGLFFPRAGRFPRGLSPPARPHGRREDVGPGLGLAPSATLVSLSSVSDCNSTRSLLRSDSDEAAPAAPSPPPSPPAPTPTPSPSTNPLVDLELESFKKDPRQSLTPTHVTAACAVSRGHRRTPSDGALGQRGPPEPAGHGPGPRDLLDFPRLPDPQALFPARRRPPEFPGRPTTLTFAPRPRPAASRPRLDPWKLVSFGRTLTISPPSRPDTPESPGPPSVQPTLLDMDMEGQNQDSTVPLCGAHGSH

MAP4K4 (human) = MAP4K4 (human) (UniProt O95819)
MERTK (human) = MERTK (human) (UniProt Q12866)
NEK1 (human) = NEK1 (human) (UniProt Q96PY6)
NEK11 (human) = NEK11 (human) (UniProt Q8NG66)
NEK4 (human) = NEK4 (human) (UniProt P51957)
Sequence of NEK4 (human) (P51957 whole entry, looked up): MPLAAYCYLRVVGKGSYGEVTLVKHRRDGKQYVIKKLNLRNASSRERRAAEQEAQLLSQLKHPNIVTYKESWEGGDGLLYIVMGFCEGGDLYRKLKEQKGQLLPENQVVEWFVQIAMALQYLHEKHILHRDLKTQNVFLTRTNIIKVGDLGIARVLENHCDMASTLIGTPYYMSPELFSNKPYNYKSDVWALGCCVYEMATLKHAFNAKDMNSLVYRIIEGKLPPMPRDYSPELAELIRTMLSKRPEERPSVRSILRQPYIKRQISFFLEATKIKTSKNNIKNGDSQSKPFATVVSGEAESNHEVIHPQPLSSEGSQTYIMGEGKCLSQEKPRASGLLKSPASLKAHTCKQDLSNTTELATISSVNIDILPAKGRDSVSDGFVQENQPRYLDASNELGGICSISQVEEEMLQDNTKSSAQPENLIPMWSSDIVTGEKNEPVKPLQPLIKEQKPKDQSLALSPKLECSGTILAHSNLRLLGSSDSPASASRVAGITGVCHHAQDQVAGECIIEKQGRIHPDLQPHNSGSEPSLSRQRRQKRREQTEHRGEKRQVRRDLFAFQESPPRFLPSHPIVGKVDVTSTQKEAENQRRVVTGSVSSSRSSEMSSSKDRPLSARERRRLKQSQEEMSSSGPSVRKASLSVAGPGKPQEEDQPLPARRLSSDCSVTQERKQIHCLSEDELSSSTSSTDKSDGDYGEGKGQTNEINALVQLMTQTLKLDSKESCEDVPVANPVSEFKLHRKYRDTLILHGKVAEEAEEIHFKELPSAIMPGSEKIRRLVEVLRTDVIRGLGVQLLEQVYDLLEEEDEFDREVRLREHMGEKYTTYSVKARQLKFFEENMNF

NTRK2 (human) = NTRK2 (human) (UniProt Q16620)
Sequence of NTRK2 (human) (Q16620 whole entry, looked up): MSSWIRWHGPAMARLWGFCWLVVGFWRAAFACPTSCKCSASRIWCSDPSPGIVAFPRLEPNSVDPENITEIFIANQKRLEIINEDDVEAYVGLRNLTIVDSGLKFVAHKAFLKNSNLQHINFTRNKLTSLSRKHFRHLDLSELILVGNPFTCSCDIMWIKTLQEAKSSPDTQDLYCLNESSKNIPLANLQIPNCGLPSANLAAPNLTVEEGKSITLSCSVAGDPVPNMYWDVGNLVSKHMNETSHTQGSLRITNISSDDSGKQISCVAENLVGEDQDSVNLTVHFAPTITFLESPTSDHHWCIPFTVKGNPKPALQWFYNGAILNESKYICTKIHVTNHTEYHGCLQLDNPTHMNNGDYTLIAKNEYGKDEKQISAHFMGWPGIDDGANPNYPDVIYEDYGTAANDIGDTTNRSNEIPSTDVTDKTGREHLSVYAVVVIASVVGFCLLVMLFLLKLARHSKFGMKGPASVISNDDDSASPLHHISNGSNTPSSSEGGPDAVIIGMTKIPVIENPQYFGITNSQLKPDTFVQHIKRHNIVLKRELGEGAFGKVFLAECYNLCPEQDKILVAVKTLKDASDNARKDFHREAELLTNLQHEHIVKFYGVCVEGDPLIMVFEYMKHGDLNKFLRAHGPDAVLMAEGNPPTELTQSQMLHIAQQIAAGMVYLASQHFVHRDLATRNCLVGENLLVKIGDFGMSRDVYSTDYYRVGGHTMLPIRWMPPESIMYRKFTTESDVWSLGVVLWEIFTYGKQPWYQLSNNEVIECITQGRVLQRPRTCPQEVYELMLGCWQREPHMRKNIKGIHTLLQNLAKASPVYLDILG

PRKCB1 (human) = PRKCB1 (human) (UniProt P05771)
PRKCD (human) = PRKCD (human) (UniProt Q05655)
PRKCH (human) = PRKCH (human) (UniProt P24723)
PRKCI (human) = PRKCI (human) (UniProt P41743)
ROCK1 (human) = ROCK1 (human) (UniProt Q13464)
SGK3 (human) = SGK3 (human) (UniProt Q96BR1)
Sequence of SGK3 (human) (Q96BR1 whole entry, looked up): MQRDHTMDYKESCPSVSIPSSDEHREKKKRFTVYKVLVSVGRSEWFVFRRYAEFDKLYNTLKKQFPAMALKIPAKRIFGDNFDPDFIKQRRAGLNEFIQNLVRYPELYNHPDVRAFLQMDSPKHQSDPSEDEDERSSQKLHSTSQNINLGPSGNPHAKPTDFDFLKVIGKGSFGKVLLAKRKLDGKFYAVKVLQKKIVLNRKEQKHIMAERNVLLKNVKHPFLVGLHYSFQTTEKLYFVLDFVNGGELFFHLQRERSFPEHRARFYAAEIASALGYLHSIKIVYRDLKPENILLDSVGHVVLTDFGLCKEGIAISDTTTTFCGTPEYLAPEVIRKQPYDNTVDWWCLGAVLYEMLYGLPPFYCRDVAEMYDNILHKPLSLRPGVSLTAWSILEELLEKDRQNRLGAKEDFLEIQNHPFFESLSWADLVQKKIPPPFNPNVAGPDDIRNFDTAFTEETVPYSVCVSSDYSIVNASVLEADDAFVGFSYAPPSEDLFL

SLK (human) = SLK (human) (UniProt Q9H2G2)
Sequence of SLK (human) (Q9H2G2 whole entry, looked up): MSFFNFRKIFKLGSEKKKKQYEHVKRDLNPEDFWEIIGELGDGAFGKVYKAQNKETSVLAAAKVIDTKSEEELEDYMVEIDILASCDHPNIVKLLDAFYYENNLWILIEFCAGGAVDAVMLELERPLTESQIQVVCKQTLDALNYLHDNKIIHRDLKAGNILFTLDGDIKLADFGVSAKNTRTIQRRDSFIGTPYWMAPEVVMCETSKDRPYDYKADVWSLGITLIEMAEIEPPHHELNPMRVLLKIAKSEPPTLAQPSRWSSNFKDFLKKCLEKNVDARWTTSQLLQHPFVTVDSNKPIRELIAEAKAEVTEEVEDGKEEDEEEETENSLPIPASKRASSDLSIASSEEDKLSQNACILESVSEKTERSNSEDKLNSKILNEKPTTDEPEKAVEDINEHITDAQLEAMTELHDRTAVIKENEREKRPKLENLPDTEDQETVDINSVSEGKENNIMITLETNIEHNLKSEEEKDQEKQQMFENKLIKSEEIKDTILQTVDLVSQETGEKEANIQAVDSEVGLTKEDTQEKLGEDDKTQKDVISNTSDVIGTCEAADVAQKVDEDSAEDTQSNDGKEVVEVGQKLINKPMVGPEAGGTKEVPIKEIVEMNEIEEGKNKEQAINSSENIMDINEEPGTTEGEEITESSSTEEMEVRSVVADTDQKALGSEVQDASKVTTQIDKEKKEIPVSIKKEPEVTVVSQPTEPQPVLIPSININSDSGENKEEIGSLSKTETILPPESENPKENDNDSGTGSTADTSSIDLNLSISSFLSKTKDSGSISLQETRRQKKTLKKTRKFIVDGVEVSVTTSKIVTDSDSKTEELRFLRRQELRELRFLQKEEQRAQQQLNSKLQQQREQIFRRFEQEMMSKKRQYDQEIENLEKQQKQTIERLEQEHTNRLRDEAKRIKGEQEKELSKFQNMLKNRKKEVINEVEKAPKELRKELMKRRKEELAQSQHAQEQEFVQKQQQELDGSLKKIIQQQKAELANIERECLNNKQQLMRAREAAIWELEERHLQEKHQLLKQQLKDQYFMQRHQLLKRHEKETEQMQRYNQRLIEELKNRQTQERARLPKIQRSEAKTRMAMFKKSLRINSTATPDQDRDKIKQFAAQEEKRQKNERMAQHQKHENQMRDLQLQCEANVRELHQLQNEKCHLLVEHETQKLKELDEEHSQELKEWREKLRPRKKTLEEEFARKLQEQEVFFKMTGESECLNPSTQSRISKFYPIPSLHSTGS

STK10 (human) = STK10 (human) (UniProt O94804)
STK24 (human) = STK24 (human) (UniProt Q9Y6E0)
STK4 (human) = STK4 (human) (UniProt Q13043)
TEC (human) = TEC (human) (UniProt P42680)
WEE1 (human) = WEE1 (human) (UniProt P30291)

Sequence of AURKA (human) (O14965 whole entry, looked up): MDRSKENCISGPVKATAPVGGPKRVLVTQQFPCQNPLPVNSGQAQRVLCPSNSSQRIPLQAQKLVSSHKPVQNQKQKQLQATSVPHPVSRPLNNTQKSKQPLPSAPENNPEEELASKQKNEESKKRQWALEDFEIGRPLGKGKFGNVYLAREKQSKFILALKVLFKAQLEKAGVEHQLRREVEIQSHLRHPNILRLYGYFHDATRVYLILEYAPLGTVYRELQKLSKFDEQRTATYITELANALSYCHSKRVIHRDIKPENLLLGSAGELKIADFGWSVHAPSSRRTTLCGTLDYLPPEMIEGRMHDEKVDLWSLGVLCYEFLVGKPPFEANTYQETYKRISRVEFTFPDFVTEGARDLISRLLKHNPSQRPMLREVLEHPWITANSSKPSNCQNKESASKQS

## CCCCc1c(-c2ccc(O)cc2)[nH]c2nccnc12
AURKA (human)
  residual activity: 24.5%
BMX (human)
  residual activity: 86.8%
BRSK2 (human)
  residual activity: 87.2%
CDK6 CCND3 (human)
  residual activity: 84.6%
CHEK2 (human)
  residual activity: 61.1%
CLK2 (human)
  residual activity: 76.4%
CSK (human)
  residual activity: 78.2%
CSNK1D (human)
  residual activity: 93.7%
CSNK2A2 (human)
  residual activity: 94.7%
DAPK3 (human)
  residual activity: 94.9%
DMPK (human)
  residual activity: 91.8%
DYRK1B (human)
  residual activity: 73.3%
EPHA5 (human)
  residual activity: 96.4%
ERBB2 (human)
  residual activity: 97.7%
FES (human)
  residual activity: 64.5%
FGFR3 (human)
  residual activity: 80%
FGR (human)
  residual activity: 63%
FRK (human)
  residual activity: 87.6%
GRK6 (human)
  residual activity: 83.5%
GSK3B (human)
  residual activity: 75.4%
HIPK2 (human)
  residual activity: 88.5%
HIPK4 (human)
  residual activity: 108%
JAK2 JH1 JH2 (human)
  residual activity: 77.8%
MAP3K10 (human)
  residual activity: 74.3%
MAP4K4 (human)
  residual activity: 60.9%
MERTK (human)
  residual activity: 94.1%
NEK1 (human)
  residual activity: 92.2%
NEK11 (human)
  residual activity: 92.5%
NEK4 (human)
  residual activity: 82.2%
NTRK2 (human)
  residual activity: 73.7%
PRKCB1 (human)
  residual activity: 95.5%
PRKCD (human)
  residual activity: 102%
PRKCH (human)
  residual activity: 90.5%
PRKCI (human)
  residual activity: 99.4%
ROCK1 (human)
  residual activity: 98.6%
SGK3 (human)
  residual activity: 95.3%
SLK (human)
  residual activity: 77.3%
STK10 (human)
  residual activity: 82.8%
STK24 (human)
  residual activity: 83.6%
STK4 (human)
  residual activity: 78.3%
TEC (human)
  residual activity: 87.3%
WEE1 (human)
  residual activity: 94.6%

## O=C(O)c1ccc2c3c1cccc3c(=O)n1c3ccccc3nc21
AURKA (human)
  residual activity: 78.6%
BMX (human)
  residual activity: 96.4%
BRSK2 (human)
  residual activity: 90.4%
CDK6 CCND3 (human)
  residual activity: 105%
CHEK2 (human)
  residual activity: 75.2%
CLK2 (human)
  residual activity: 91%
CSK (human)
  residual activity: 101%
CSNK1D (human)
  residual activity: 101%
CSNK2A2 (human)
  residual activity: 13.3%
DAPK3 (human)
  residual activity: 51.3%
DMPK (human)
  residual activity: 98.9%
DYRK1B (human)
  residual activity: 40.1%
EPHA5 (human)
  residual activity: 94.2%
ERBB2 (human)
  residual activity: 99.7%
FES (human)
  residual activity: 98.2%
FGFR3 (human)
  residual activity: 92.9%
FGR (human)
  residual activity: 98.9%
FRK (human)
  residual activity: 97.6%
GRK6 (human)
  residual activity: 91.4%
GSK3B (human)
  residual activity: 100%
HIPK2 (human)
  residual activity: 101%
HIPK4 (human)
  residual activity: 86.9%
JAK2 JH1 JH2 (human)
  residual activity: 86.7%
MAP3K10 (human)
  residual activity: 99.3%
MAP4K4 (human)
  residual activity: 43.4%
MERTK (human)
  residual activity: 77.7%
NEK1 (human)
  residual activity: 87.8%
NEK11 (human)
  residual activity: 83%
NEK4 (human)
  residual activity: 60.4%
NTRK2 (human)
  residual activity: 98.4%
PRKCB1 (human)
  residual activity: 89.8%
PRKCD (human)
  residual activity: 103%
PRKCH (human)
  residual activity: 100%
PRKCI (human)
  residual activity: 94.6%
ROCK1 (human)
  residual activity: 104%
SGK3 (human)
  residual activity: 103%
SLK (human)
  residual activity: 94.1%
STK10 (human)
  residual activity: 88.6%
STK24 (human)
  residual activity: 87.6%
STK4 (human)
  residual activity: 93.3%
TEC (human)
  residual activity: 123%
WEE1 (human)
  residual activity: 84.6%

Reference: the kinase profiling compilation of Christmann-Franck et al. (2016)
